Measurements: patent publication US20220204497A1, “NOVEL COMPOUND HAVING ANTICANCER ACTIVITY, AND METHOD FOR PRODUCING SAME” (MEDICINAL BIOCONVERGENCE RESEARCH CENTER, priority 2019, published 2022)

Columns and labels:
A549 cells = test: Cell viability by MTT method in A549 cells; type: cell-based; set-up: concentration or dose not given beside the values; details: 72 hours treatment
AIMP2-DX2 = target: T1, AIMP2-DX2 (Homo sapiens, UniProt Q13155); test: DX2-nanoluciferase assay (DX2 expression change) in transfected A549 cells; details: inhibitory effect on AIMP2-DX2 expression; for inhibition at 40 µM: A549, 4 h, read-out: DX-Nanoluciferase activity (40 μM), 40 μM, 4 hours treatment, A549 cells transfected with nanoluciferase-DX2; for DX-Nanoluciferase activity (40 μM): 4 hours treatment, A549 cells transfected with nanoluciferase-DX2
T1 sequence (Q13155 1-251 isoform Q13155-2): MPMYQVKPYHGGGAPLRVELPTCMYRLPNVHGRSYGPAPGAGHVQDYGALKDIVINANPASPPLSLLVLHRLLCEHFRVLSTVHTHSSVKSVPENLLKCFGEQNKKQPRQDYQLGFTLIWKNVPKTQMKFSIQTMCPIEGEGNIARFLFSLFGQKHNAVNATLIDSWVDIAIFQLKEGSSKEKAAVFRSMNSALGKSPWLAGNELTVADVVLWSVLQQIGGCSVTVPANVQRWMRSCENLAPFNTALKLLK
Method: After cloning DX2 into a plasmid expressing nanoluciferase, the plasmid was transfected into A549 cells. Transfected cells were seeded 1×10^4 per well in a 96-well plate and stabilized for 12 hours. […] Cell viability was measured by the MTT method after 72 hours of treatment with each concentration of the compound in A549 cells.

inhibition at 40 µM (AIMP2-DX2)	SMILES	Cell Viability (% inhibition) (A549) (A549 cells)	DX-Nanoluciferase activity (40 μM) (AIMP2-DX2)
42.4 ± 3.97%	Cc1cc(C)cc(S(=O)(=O)N[C@@H](Cc2c[nH]c3ccccc23)C(=O)Nc2ccc(N3CCOCC3)cc2)c1 [Compound 66, (S)-2-(3,5-Dimethylphenylsulfonamido)-3-(1H-indol-3-yl)-N-(4 morpholinophenyl)propanamide]	77.25 ± 0.82%	–
44.5 ± 14.2%	O=C(Nc1ccc(N2CCOCC2)cc1)[C@H](Cc1c[nH]c2ccccc12)NS(=O)(=O)c1ccc(F)cc1 [Compound 67, (S)-2-(4-Fluorophenylsulfonamido)-3-(1H-indol-3-yl)-N-(4-morpholinophenyl)propanamide]	69.20 ± 2.10%	–
48.4 ± 11.6%	Cc1ccc(S(=O)(=O)N[C@@H](Cc2c[nH]c3ccc(O)cc23)C(=O)Nc2ccc(N3CCOCC3)cc2)cc1 [Compound 69, (S)-3-(5-Hydroxy-1H-indol-3-yl)-2-(4-methylphenylsulfonamido)-N-(4-morpholinophenyl)propanamide]	20.62 ± 5.14%	–
21.5 ± 7.62%	Cc1ccc(S(=O)(=O)N[C@@H](Cc2c[nH]c3ccccc23)C(=O)Nc2ccc(N3CCOCC3)cc2)c(C)c1 [Compound 72, (S)-2-(2,4-Dimethylphenylsulfonamido)-3-(1H-indol-3-yl)-N-(4-morpholinophenyl)propanamide]	73.73 ± 0.78%	–
56.2 ± 14.5%	Cc1ccc(S(=O)(=O)N[C@@H](Cc2cn(S(=O)(=O)c3ccc(C)cc3)cn2)C(=O)Nc2ccc(N3CCOCC3)cc2)cc1 [Compound 74, (S)-2-(4-Methylphenylsulfonamido)-N-(4-morpholinophenyl)-3-(1-tosyl-1H-Imidazol-4-yl)propanamide]	45.34 ± 4.64%	–
23.9 ± 7.01%	Cc1ccc(S(=O)(=O)N[C@@H](Cc2c[nH]c3ccccc23)C(=O)Nc2ccc(N3CCOCC3)c(F)c2)cc1 [Compound 77, (S)—N-(3-fluoro-4-morpholinophenyl)-3-(1H-indol-3-yl)-2-(4-methylphenylsulfonamido)propanamide]	80.59 ± 1.49%	–
44.5 ± 12.7%	O=C(Nc1ccc(N2CCOCC2)cc1)[C@H](Cc1c[nH]c2ccccc12)NS(=O)(=O)c1ccc([N+](=O)[O-])cc1 [Compound 78, (S)-3-(1H-indol-3-yl)-N-(4-morpholinophenyl)-2-(4-nitrophenylsulfonamido)propanamide]	67.08 ± 1.45%	–
30.6 ± 15.3%	O=C(Nc1ccc(N2CCOCC2)cc1)[C@H](Cc1c[nH]c2ccccc12)NS(=O)(=O)c1ccc(Br)cc1 [Compound 79, (S)-2-(4-Bromophenylsulfonamido)-3-(1H-indol-3-yl)-N-(4-morpholinophenyl)propanamide]	78.31 ± 1.91%	–
44.9 ± 13.3%	COc1ccc(S(=O)(=O)N[C@@H](Cc2c[nH]c3ccccc23)C(=O)Nc2ccc(N3CCOCC3)cc2)cc1 [Compound 80, (S)-3-(1H-indol-3-yl)-2-(4-methoxyphenylsulfonamido)-N-(4-morpholinophenyl)propanamide]	38.64 ± 1.03%	–

The next lines start with the molecule.

SMILES	inhibition at 40 µM (AIMP2-DX2)	Cell Viability (% inhibition) (A549) (A549 cells)	DX-Nanoluciferase activity (40 μM) (AIMP2-DX2)
CC(C)C[C@H](NC(=O)c1ccc(NC(=O)OC(C)(C)C)cc1)C(=O)OCc1ccccc1 [Compound 53, (S)-benzyl 2-(4-(tert-butoxycarbonylamino)benzamido)-4-methylpentanoate]	43.7 ± 9.9%	49.19 ± 13.33%	–
CC(C)C[C@H](NC(=O)CCS(=O)(=O)c1ccccc1)C(=O)OCc1ccccc1 [Compound 54, (S)-benzyl 4-methyl-2-(3-(phenylsulfonyl)propanamido)pentanoate]	–	84.05 ± 2.61%	33.7 ± 4.3
CC(C)C[C@H](NC(=O)Nc1ccccc1)C(=O)N1CCOCC1 [Compound 56, (S)-1-(4-Methyl-1-morpholino-1-oxopentan-2-yl)-3-phenylurea]	33 ± 10.7%	32.07%	–
CC(C)C[C@H](NC(=O)c1ccc(C(C)(C)C)cc1)C(=O)N1CCOCC1 [Compound 57, (S)-4-tert-Butyl-N-(4-methyl-1-morpholino-1-oxopentan-2-yl)benzamide]	63.8 ± 11%	−4.86 ± 4.95%	–
CC(C)C[C@H](NC(=O)CCS(=O)(=O)c1ccccc1)C(=O)N1CCOCC1 [Compound 58, (S)—N-(4-Methyl-1-morpholino-1-oxopentan-2-yl)-3-(phenylsulfonyl)propanamide]	63.1 ± 4.5%	−0.81 ± 4.95%	–
CC(C)C[C@H](NC(=O)c1ccc(C(C)(C)C)cc1)C(=O)Nc1ccc(N2CCOCC2)cc1 [Compound 59, (S)-4-tert-Butyl-N-(4-methyl-1-(4-morpholinophenylamino)-1-oxopentan-2-yl)benzamide]	45.7 ± 8.28%	90.03 ± 0.97%	–
CC(C)C[C@H](NC(=O)c1ccc2c(c1)OCO2)C(=O)Nc1ccc(N2CCOCC2)cc1 [Compound 60, (S)—N-(4-Methyl-1-(4-morpholinophenylamino)-1-oxopentan-2-yl)benzo[d][1,3]dioxole-5-carboxamide]	35.7 ± 10.2%	9.46 ± 9.67%	–
CC(C)C[C@H](NC(=O)CCS(=O)(=O)c1ccccc1)C(=O)Nc1ccc(N2CCOCC2)cc1 [Compound 61, (S)-4-Methyl-N-(4-morpholinophenyl)-2-(3-(phenylsulfonyl)propanamido)pentanamide]	60.3 ± 4.8%	−1.25 ± 3.63%	–
O=C(Nc1ccc(N2CCOCC2)cc1)[C@H](Cc1c[nH]c2ccccc12)NS(=O)(=O)c1ccc(C(F)(F)F)cc1 [Compound 68, (S)-3-(1H-indol-3-yl)-N-(4-morpholinophenyl)-2-(4-(trifluoromethyl)phenylsulfon-amido)propanamide]	–	76.90 ± 0.51%	48.06 ± 6.78
Cc1ccc(S(=O)(=O)N[C@@H](Cc2c[nH]c3ccccc23)C(=O)N2CCOCC2)cc1 [Compound 70, (S)—N-(3-(1H-indol-3-yl)-1-morpholino-1-oxopropan-2-yl)-4-methylbenzenesulfonamide]	59.7 ± 3.49%	23.61 ± 2.18%	–
Cc1ccc(S(=O)(=O)N[C@@H](Cc2c[nH]c3ccccc23)C(=O)Nc2ncc(N3CCOCC3)s2)cc1 [Compound 71, (S)-3-(1H-indol-3-yl)-2-(4-methylphenylsulfonamido)-N-(5-morpholinothiazol-2-yl)propan amide]	–	72.71 ± 0.97%	54.64 ± 13.30
CCOC(=O)C(Cc1c[nH]c2ccc(C(=O)O)cc12)NS(=O)(=O)c1ccc(C)cc1 (centres unmarked) [Compound 73, 3-(3-Ethoxy-2-(4-methylphenylsulfonamido)-3-oxopropyl)-1H-indole-5-carboxylic acid]	44.2 ± 3.91%	4.32 ± 2.95%	–
Cc1ccc(S(=O)(=O)N[C@@H](Cc2c[nH]c3ccccc23)C(=O)Nc2ccc(N3C[C@@H](C)O[C@@H](C)C3)nc2)cc1 [Compound 75, (S)—N-(6-((2S,6R)-2,6-dimethylmorpholino)pyridin-3-yl)-3-(1H-indol-3-yl)-2-(4-methylphenylsulfonamido)propanamide]	57.8 ± 8%	79.58 ± 3.72%	–
CC(C)c1ccc(S(=O)(=O)N[C@@H](Cc2c[nH]c3ccccc23)C(=O)Nc2ccc(N3CCOCC3)cc2)cc1 [Compound 81, (S)-3-(1 Indol-3-yl)-2-(4-isopropylphenylsulfonamido)-N-(4 morpholinophenyl)propanamide]	–	73.98 ± 0.39%	77.74 ± 6.75
COc1ccc(-c2csc(NC(=O)[C@H](Cc3c[nH]c4ccccc34)NS(=O)(=O)c3ccc(C(C)C)cc3)n2)cc1 [Compound 82, (S)-3-(1H-indol-3-yl)-2-(4-isopropylphenylsulfonamido)-N-(4-(4-methoxyphenyl)thiazol-2-yl)propanamide]	29.3 ± 2.7%	96.64 ± 0.09%	–
Cc1ccc(S(=O)(=O)N[C@@H](Cc2c[nH]c3ccccc23)C(=O)Nc2nc(C)cs2)cc1 [Compound 83, (S)-3-(1H-indol-3-yl)-2-(4-methylphenylsulfonamido)-N-(4-methylthiazol-2-yl)propanamide]	17.4 ± 3.23%	97.43 ± 2.01%	–
Cc1ccc(S(=O)(=O)N[C@@H](Cc2c[nH]c3ccccc23)C(=O)Nc2nc3ccccc3s2)cc1 [Compound 84, (S)—N-(benzo[d]thiazol-2-yl)-3-(1H-indol-3-yl)-2-(4-methylphenylsulfonamido)propanamide]	-15.8 ± 6.29%	20.93 ± 11.89%	–
O=C(O)[C@H](Cc1c[nH]c2ccccc12)NS(=O)(=O)c1ccc(Br)cc1 [Compound 85, (S)-2-(4-Bromophenylsulfonamido)-3-(1H-indol-3-yl)propanoic acid]	20.2 ± 1.65%	10.28 ± 3.54%	–
Cc1ccc(S(=O)(=O)N[C@@H](CC(C)C)C(=O)Nc2ncc(N3CCOCC3)s2)cc1 [Compound 86, (S)-4-Methyl-2-(4-methylphenylsulfonamido)-N-(5-morpholinothiazol-2-yl)pentanamide]	37.7 ± 6.09%	20.70 ± 1.43%	–
